Assay results from patent US8551991B2, “1,2,3,4-tetrahydroquinoxaline derivative having glucocorticoid receptor binding activity” (Santen Pharmaceutical Co., Ltd., priority 2006, dated 2013).

Target: T1, Recombinant human GR (Homo sapiens, UniProt P04150)
T1 construct: purchased Invitrogen P2816
T1 sequence (P04150 1-777): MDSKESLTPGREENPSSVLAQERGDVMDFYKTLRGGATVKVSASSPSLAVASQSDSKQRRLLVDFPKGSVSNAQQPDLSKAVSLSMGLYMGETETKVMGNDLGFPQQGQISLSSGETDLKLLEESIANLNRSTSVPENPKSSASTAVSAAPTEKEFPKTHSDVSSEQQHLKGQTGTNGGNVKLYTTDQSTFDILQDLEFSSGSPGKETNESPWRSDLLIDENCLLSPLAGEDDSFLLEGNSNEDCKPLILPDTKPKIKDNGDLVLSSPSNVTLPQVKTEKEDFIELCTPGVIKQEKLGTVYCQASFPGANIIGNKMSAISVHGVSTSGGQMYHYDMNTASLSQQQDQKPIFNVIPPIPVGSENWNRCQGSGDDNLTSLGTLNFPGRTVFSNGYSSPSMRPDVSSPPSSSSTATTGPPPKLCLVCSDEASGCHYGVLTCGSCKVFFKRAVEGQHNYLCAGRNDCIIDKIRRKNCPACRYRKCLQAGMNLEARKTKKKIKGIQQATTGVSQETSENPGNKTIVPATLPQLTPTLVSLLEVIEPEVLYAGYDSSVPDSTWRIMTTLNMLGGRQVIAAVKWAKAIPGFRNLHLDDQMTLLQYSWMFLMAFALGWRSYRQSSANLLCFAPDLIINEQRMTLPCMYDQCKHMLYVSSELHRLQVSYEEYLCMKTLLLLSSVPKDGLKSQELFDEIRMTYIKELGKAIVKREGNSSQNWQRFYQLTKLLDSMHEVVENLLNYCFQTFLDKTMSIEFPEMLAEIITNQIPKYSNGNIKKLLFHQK
Experiment: GR competitor assay by fluorescence polarization (binding activity to glucocorticoid receptor)
Conditions: 20 μM test compound solution, 25 μL per well plus 12.5 μL each of 4×GS1 and 4×GR solution; Fluormone GS1 ligand; positive control 2 mM dexamethasone; read-out: GR Binding ratio (%)
Procedure: 1. Evaluation Test for Binding Activity to Glucocorticoid Receptor (Hereinafter Referred to as “GR”)
In order to evaluate a binding activity to GR, a receptor competitor assay was carried out by a fluorescence polarization method. In the assay, a GR competitor assay kit (manufactured by Invitrogen, cat No. P2816) was used, and a procedure was carried out according to the protocol attached to the kit. Hereinafter, the specific method will be described.
GR screening buffer: A buffer containing 10 mM potassium phosphate (pH 7.4), 20 mM sodium molybdate (Na2MoO4), 0.1 mM ethylene diamine tetraacetic acid (EDTA), 5 mM dithiothreitol (DTT), 0.1 mM stabilizing peptide and 2% dimethylsulfoxide was prepared.
4×GS1 solution: Fluormone™ GS1, which is a fluorescent glucocorticoid ligand, was diluted with GR screening buffer, whereby a 4 nM solution was prepared.
4×GR solution: Recombinant human GR was diluted with GR screening buffer, whereby a 16 nM solution was prepared.
After a test compound was dissolved in dimethylsulfoxide, the resulting solution was diluted with GR screening buffer, whereby a 20 μM test compound solution was prepared.
1) The test compound solution was added in an amount of 25 μL into each well of a 96-well plate, and then, 4×GS1 solution and 4×GR solution were added in an amount of 12.5 μL into each well, respectively.
2) The plate was incubated in a dark place at room temperature for 2 to 4 hours.
3) By using a multimode plate reader, Analyst™ HT (manufactured by LJL Biosystems), fluorescence polarization of each well was measured. As the blank, a well containing GR screening buffer in place of the test compound and 4×GS1 solution was used.
4) The same procedure as that in the above 1) to 3) was carried out except that GR screening buffer was used in place of the test compound solution, and the obtained result was taken as the negative control.
5) The same procedure as that in the above 1) to 3) was carried out except that 2 mM dexamethasone was used in place of the test compound solution, and the obtained result was taken as the positive control.
A GR binding ratio (%) was calculated from the following equation.
GR binding ratio (%)=100×[1-(fluorescence polarization of test compound solution-fluorescence polarization of positive control solution)/(fluorescence polarization of negative control solution—fluorescence polarization of positive control solution)]

inhibition at 10 µM [%]	Structure (SMILES)
100	COc1ccc(C)cc1NCc1c(-c2ccc(F)cc2OC)ccc2c1N(C)C(=O)C(C)(C)N2 [Compound 4-5]
100	C=CC(=O)Oc1ccc(-c2ccc3c(c2COc2cc(F)ccc2C)N(C)C(=O)C(C)(C)N3)c(OC)c1 [Compound 14-33]
100	C=CCN1C(=O)C(C)(C)Nc2ccc(-c3cc(F)ccc3OC)c(COC(=O)c3ccc(C)cc3)c21 [Compound 5-19]
86	COc1cc(N(C)C(C)=O)ccc1-c1ccc2c(c1COc1cc(F)ccc1C)N(C)C(=O)C(C)(C)N2 [Compound 16-3, 7-[4-(N-Acetyl-N-methylamino)-2-methoxyphenyl]-8-(5-fluoro-2-methylphenoxymethyl)-1,3,3-trimethyl-3,4-dihydro-1H-quinoxalin-2-one]
100	COc1cc(N)ccc1-c1ccc2c(c1COc1cc(F)ccc1C)N(C)C(=O)C(C)(C)N2 [Compound 8-2]
100	CSc1ccccc1-c1ccc2c(c1COc1cc(F)ccc1C)N(C)C(=O)C(C)(C)N2 [Compound 6-10]
100	COc1ccc(C(F)(F)F)cc1-c1ccc2c3c1CN(c1ccccc1OC)CN3C(=O)C(C)(C)N2 [Compound 6-38]
94	COc1cc(OC(=O)c2ccccc2SC)ccc1-c1ccc2c(c1COC(=O)c1ccc(C)s1)N(C)C(=O)C(C)(C)N2 [Compound 15-24]
100	COc1ccc(F)cc1-c1ccc2c(c1COc1ccccc1)N(C)C(=O)C(C)(C)N2 [Compound 5-9]
100	COc1ccc(C(F)(F)F)cc1-c1ccc2c(c1COc1cc(F)ccc1C)N(C)C(=O)C(C)(C)N2 [Compound 6-19]
100	COc1cc(NC(=O)c2ccncc2)ccc1-c1ccc2c(c1COc1cc(F)ccc1C)N(C)C(=O)C(C)(C)N2 [Compound 14-21, 8-(5-fluoro-2-methylphenoxymethyl)-7-[2-methoxy-4-(pyridin-4-ylcarbonylamino)phenyl]-1,3,3-trimethyl-3,4-dihydro-1H-quinoxalin-2-one]
100	COc1ccc([N+](=O)[O-])cc1OCc1c(-c2ccc(F)cc2OC)ccc2c1N(C)C(=O)C(C)(C)N2 [Compound 3-16]
100	C=CCc1ccccc1OCc1c(-c2ccc(F)cc2OC)ccc2c1N(C)C(=O)C(C)(C)N2 [Compound 3-17]
98	Cc1ccc(F)cc1OCc1c(-c2ccccc2Cl)ccc2c1N(C)C(=O)C(C)(C)N2 [Compound 6-4]
100	COC(=O)c1cccc(C(=O)Oc2ccc(-c3ccc4c(c3COc3cc(F)ccc3C)N(C)C(=O)C(C)(C)N4)c(OC)c2)c1 [Compound 15-1, 8-(5-Fluoro-2-methylphenoxymethyl)-7-[2-methoxy-4-(3-methoxycarbonylbenzoyloxy)phenyl]-1,3,3-trimethyl-3,4-dihydro-1H-quinoxalin-2-one]
89	COc1ccc(OC(=O)c2ccccc2)cc1-c1ccc2c(c1COc1cc(F)ccc1C)N(C)C(=O)C(C)(C)N2 [Compound 6-32]

inhibition at 10 µM [%]	Structure (SMILES)
94	COc1ccccc1NCc1c(-c2ccc(OC(=O)c3cscn3)cc2OC)ccc2c1N(C)C(=O)C(C)(C)N2 [Compound 21-13, 8-(2-Methoxyphenylaminomethyl)-7-[2-methoxy-4-(thiazol-4-ylcarbonyloxy)phenyl]-1,3,3-trimethyl-3,4-dihydro-1H-quinoxalin-2-one]
100	COc1cc(OC(=O)c2ccccc2C)ccc1-c1ccc2c(c1COC(=O)c1cccc(F)c1)N(C)C(=O)C(C)(C)N2 [Compound 5-24]
88	COc1cc(OC(=O)Oc2ccccc2)ccc1-c1ccc2c(c1COc1cc(F)ccc1C)N(C)C(=O)C(C)(C)N2 [Compound 14-36]
100	COc1ccc(C(=O)Oc2ccc(-c3ccc4c(c3COc3cc(F)ccc3C)N(C)C(=O)C(C)(C)N4)c(OC)c2)cc1 [Compound 14-30]
91	COc1ccc(C(=O)OCc2c(-c3ccc(OC(=O)c4ccccc4C)cc3OC)ccc3c2NC(=O)C(C)(C)N3)cc1 [Compound 1-4, 7-[2-Methoxy-4-(2-methylbenzoyloxy)phenyl]-8-(4-methoxybenzoyloxymethyl)-3,3-dimethyl-3,4-dihydro-1H-quinoxalin-2-one]
100	COc1ccc(F)cc1-c1ccc2c(c1CNc1ccccc1)N(C)C(=O)C(C)(C)N2 [Compound 5-14]
100	COc1ccccc1NCc1c(-c2ccc(O)cc2OC)ccc2c1N(C)C(=O)C(C)(C)N2 [Compound 21-3, 7-(4-Hydroxy-2-methoxyphenyl)-8-(2-methoxyphenylaminomethyl)-1,3,3-trimethyl-3,4-dihydro-1H-quinoxalin-2-one]
100	COc1ccc(C(=O)OCc2c(-c3ccc(OC(=O)c4ccccc4C)cc3OC)ccc3c2N(C)C(=O)C(C)(C)N3)cc1 [Compound 5-21]
98	CCCC(=O)Oc1ccc(-c2ccc3c(c2CNc2ccccc2OC)N(C)C(=O)C(C)(C)N3)c(OC)c1 [Compound 21-5, 7-(4-Butyryloxy-2-methoxyphenyl)-8-(2-methoxyphenylaminomethyl)-1,3,3-trimethyl-3,4-dihydro-1H-quinoxalin-2-one]
100	COc1ccc(Cl)cc1-c1ccc2c(c1CNc1ccccc1C(C)C)N(C)C(=O)C(C)(C)N2 [Compound 4-10]
99	COc1ccc(F)cc1-c1ccc2c(c1COC(=O)c1ccc(C)cc1)NC(=O)C(C)(C)N2 [Compound 2-2]
99	COc1ccc([N+](=O)[O-])cc1OCc1c(-c2ccc(OC(=O)c3ccccc3C)cc2OC)ccc2c1N(C)C(=O)C(C)(C)N2 [Compound 5-22]
100	COc1cc(OC(=O)c2ccccc2F)ccc1-c1ccc2c(c1COC(=O)c1ccc(C)s1)N(C)C(=O)C(C)(C)N2 [Compound 14-44]
100	COc1cc(F)ccc1-c1ccc2c(c1COc1cc(Cl)ccc1C)N(C)C(=O)C(C)(C)N2 [Compound 3-15]
98	COc1cccc(F)c1-c1ccc2c(c1COc1cc(F)ccc1C)N(C)C(=O)C(C)(C)N2 [Compound 6-23]

Structure (SMILES)	inhibition at 10 µM [%]
COc1cc(OC(=O)Nc2ccccc2)ccc1-c1ccc2c(c1COC(=O)c1ccc(C)s1)N(C)C(=O)C(C)(C)N2 [Compound 17-16, 7-(2-Methoxy-4-phenylaminocarbonyloxyphenyl)-8-(5-methylthiophen-2-ylcarbonyloxymethyl)-1,3,3-trimethyl-3,4-dihydro-1H-quinoxalin-2-one]	88
COc1cc(OC(=O)Nc2cccnc2)ccc1-c1ccc2c(c1COc1cc(F)ccc1C)N(C)C(=O)C(C)(C)N2 [Compound 17-5, 8-(5-Fluoro-2-methylphenoxymethyl)-7-[2-methoxy-4-(pyridin-3-ylaminocarbonyloxy)phenyl]-1,3,3-trimethyl-3,4-dihydro-1H-quinoxalin-2-one]	91
COc1cc(OC(=O)N(C)C)ccc1-c1ccc2c(c1COc1cc(F)ccc1C)N(C)C(=O)C(C)(C)N2 [Compound 18-2, 7-(4-Dimethylaminocarbonyloxy-2-methoxyphenyl)-8-(5-fluoro-2-methylphenoxymethyl)-1,3,3-trimethyl-3,4-dihydro-1H-quinoxalin-2-one]	99
COc1cc(NC(=O)Oc2ccccc2)ccc1-c1ccc2c(c1COc1cc(F)ccc1C)N(C)C(=O)C(C)(C)N2 [Compound 14-37]	93
